According to US20250243245A1 (priority 2022, published 2025):
“And” between values parts separate entries of the source, which are not always exact repeats. Equal values may be shown once. Read-outs that look alike come from different tables or passages of the source. Where a SMILES comes first, the peptide text is derived from it.

Assays:
CLas = format: cell-based, Candidatus Liberibacter asiaticus
E. amylovora = format: cell-based, Erwinia amylovora
[1] = system: selected genes in the PTI, ETI, and SA/JA/ET signaling; format: cell-based, apple (Red Delicious)
in vitro = conditions: human, HEK cells (HEK294 [sic])
[2] = system: tomato and tobacco leaves; assay: Leaf infiltration toxicity on tomato and tobacco leaves; conditions: for toxicity to tomato and tobacco: 15-25 μM, even after 96 hours of leaf infiltration; for corrosion of infiltrated tomato and tobacco leaves: 24, 48, 72, and 96 hours of infiltration (FIGS. 8A-H)

SMILES: CC[C@H](C)[C@H](NC(=O)[C@H](CCCCN)NC(=O)[C@H](CC(C)C)NC(=O)[C@@H](NC(=O)[C@H](CCCCN)NC(=O)[C@H](CCCCN)NC(=O)[C@@H]1CCCN1C(=O)[C@H](CC(C)C)NC(=O)[C@H](CCCCN)NC(=O)[C@@H](N)CCCCN)[C@@H](C)CC)C(=O)N[C@@H](CC(C)C)C(=O)NCC(=O)N[C@@H](CO)C(=O)NCC(=O)N[C@@H](Cc1ccc(O)cc1)C(=O)NCC(=O)N[C@@H](CO)C(=O)N1CCC[C@H]1C(=O)NCC(=O)N[C@@H](Cc1ccccc1)C(=O)N[C@@H](Cc1c[nH]c2ccccc12)C(=O)N[C@@H](CCC(N)=O)C(=O)N[C@@H](CCCNC(=N)N)C(=O)N[C@@H](CCCNC(=N)N)C(=O)N[C@H](C(=O)N[C@@H](CCCNC(=N)N)C(=O)N[C@@H](CCCNC(=N)N)C(=O)N[C@@H](Cc1c[nH]c2ccccc12)C(=O)N[C@@H](CCCNC(=N)N)C(=O)N[C@@H](CCCNC(=N)N)C(=O)O)[C@@H](C)CC [Peptide 30P-3]
- Ct value, DNA, CLas clearance from infected citrus leaves (CLas): 29.08 ± 0.018 (2.3 × 10^4 ± 0.122)
- Ct value, RNA, CLas clearance from infected citrus leaves (CLas): 31.80 ± 0.028 (6.8 × 10^3 ± 0.190)
- Ct, DNA, HLBas (CLas primer), Mean (CLas): 27.53 and 26.725
- Ct, DNA, HLBas (CLas primer), single replicate (CLas): 27 (2×) and 28.06 and 26.45
- Ct, RNA, HLBas (CLas primer), Mean (CLas): 30.155
- Ct, RNA, HLBas (CLas primer), single replicate (CLas): 29.94 and 30.37
- Ct, DNA, Erwinia Primer (P29T), Mean (E. amylovora; 20 μM peptide): 37.19
- Ct, DNA, Erwinia Primer (P29T), single replicate (E. amylovora; 20 μM peptide): 37.67 and 36.71
- Ct, DNA, Erwinia Primer (P29T), Mean (E. amylovora; 25 μM peptide): 36.5
- Ct, DNA, Erwinia Primer (P29T), single replicate (E. amylovora; 25 μM peptide): 37.76 and 35.24
- Ct, RNA, Erwinia Primer (P29T), Mean (E. amylovora; 25∞M peptide): 31.535
- Ct, RNA, Erwinia Primer (P29T), single replicate (E. amylovora; 25∞M peptide): 31.56 and 31.51
- Ct value, DNA, E. amylovora clearance from infected apple leaves (E. amylovora; qPCR of DNA, 25 μM peptide): 36.50 ± 0.89
- cfu, DNA, E. amylovora clearance from infected apple leaves (E. amylovora; qPCR of DNA, 25 μM peptide, value in brackets): ~10^2 cfu
- Ct value, RNA, E. amylovora clearance from infected apple leaves (E. amylovora; qPCR of RNA, 25 μM peptide): 31.54 ± 0.018
- cfu, RNA, E. amylovora clearance from infected apple leaves (E. amylovora; qPCR of RNA, 25 μM peptide, value in brackets): 7.8 × 10^3 ± 0.122 cfu
- expression of the selected genes [1]: lower expression of the selected genes
- IC50 (E. coli BL21; BL21, 24 h): 1450 ± 90 nM
- cytotoxicity at 72 h, 20 µM (in vitro): < 20%
- toxicity to tomato and tobacco [2]: not toxic
- corrosion of infiltrated tomato and tobacco leaves [2]: no corrosion beyond the infiltrated spots

SMILES: CC[C@H](C)[C@H](NC(=O)[C@H](CCCNC(=N)N)NC(=O)[C@H](CCCNC(=N)N)NC(=O)[C@H](CCC(N)=O)NC(=O)[C@H](Cc1c[nH]c2ccccc12)NC(=O)[C@H](Cc1ccccc1)NC(=O)CNC(=O)[C@@H]1CCCN1C(=O)[C@H](CO)NC(=O)CNC(=O)[C@H](Cc1ccc(O)cc1)NC(=O)CNC(=O)[C@H](CO)NC(=O)[C@H](CCC(=O)O)NC(=O)[C@H](CC(C)C)NC(=O)[C@@H](NC(=O)[C@H](CCCCN)NC(=O)[C@H](CC(C)C)NC(=O)[C@@H](NC(=O)[C@H](CCCCN)NC(=O)[C@H](CCC(=O)O)NC(=O)[C@@H]1CCCN1C(=O)[C@H](CC(C)C)NC(=O)[C@H](CCCCN)NC(=O)[C@@H](N)CCCCN)[C@@H](C)CC)[C@@H](C)CC)C(=O)N[C@@H](CCCNC(=N)N)C(=O)N[C@@H](CCCNC(=N)N)C(=O)N[C@@H](Cc1c[nH]c2ccccc12)C(=O)N[C@@H](CCCNC(=N)N)C(=O)N[C@@H](CCCNC(=N)N)C(=O)O [UGK-13] (H-KKLPEKILKILESGYGSPGFWQRRIRRWRR-OH)
- IC50 (E. coli BL21; BL21): 1200 ± 100 nM
- IC50 (E. coli BL21; BL21, 24 h): 1240 ± 20 nM
- IC50 (ATCC25922): 1400 ± 300 nM
- cytotoxicity at 72 h, 20 µM (in vitro): < 20%
- toxicity to tomato and tobacco [2]: not toxic
- corrosion of infiltrated tomato and tobacco leaves [2]: no corrosion beyond the infiltrated spots
